One experiment concerns the target T1, recombinant Human CYP17 enzyme (17-20 lyase) (Homo sapiens, UniProt P05093).
T1 construct: made in house; host or cells: A549 cells, adenoviral expression system; purified cell membrane preparations
T1 sequence (P05093 1-508): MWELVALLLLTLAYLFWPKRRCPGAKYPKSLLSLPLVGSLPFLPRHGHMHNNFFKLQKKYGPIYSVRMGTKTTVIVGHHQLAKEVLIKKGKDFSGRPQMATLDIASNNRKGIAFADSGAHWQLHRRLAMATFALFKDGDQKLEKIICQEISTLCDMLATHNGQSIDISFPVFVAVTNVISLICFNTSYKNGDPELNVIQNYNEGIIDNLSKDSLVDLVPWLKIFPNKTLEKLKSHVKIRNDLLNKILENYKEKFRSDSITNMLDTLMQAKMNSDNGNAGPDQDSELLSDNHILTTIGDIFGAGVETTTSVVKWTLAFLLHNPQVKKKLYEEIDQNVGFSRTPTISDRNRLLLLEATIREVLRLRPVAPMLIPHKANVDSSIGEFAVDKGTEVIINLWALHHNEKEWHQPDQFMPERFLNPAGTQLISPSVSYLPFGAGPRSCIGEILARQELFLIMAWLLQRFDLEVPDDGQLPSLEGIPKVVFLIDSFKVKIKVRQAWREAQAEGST
The experiment can be described thus: Cytochrome P450, 17-20 lyase (CYP17-lyase) assay, 17-α-hydroxy pregnenolone [21-3H] as substrate. Format: biochemical. The conditions noted are these: at 10 μM; read-out: hCYP17 Lyase % Inh. An excerpt: 1) Cytochrome P450, 17-20 Lyase (CYP17-Lyase) Assay Development Using Recombinant Human CYP17 Enzyme and 17-α-Hydroxy Pregnenolone [21-3H] as the Substrate.
Cytochrome P450, 17-α-Hydroxylase, 17-20 lyase (CYP17) is a multi functional enzyme that plays a key role in the biosynthesis of steroid hormones. It catalyses both conventional hydroxylation and also the carbon-carbon bond cleavage reactions (Peter Lee-Robichaud et al, Biochem. J, (1997) 321, 857-63). In the hydroxylation reaction, it converts progesterone and pregnenolone to the corresponding hydroxylated products 17-α-hydroxy progesterone and 17-α-hydroxy pregnenolone. In the lyase reaction, it catalyzes the conversion of these hydroxylated substrates to Androstenedione and Dehydroepiandrosterone (DHEA) respectively. In the Cyp17 lyase assay described here, the conversion of 17-α-hydroxy pregnenolone to Dehydroepiandrosterone and acetic acid is being monitored.
Assay method was adopted from a published protocol with some modifications to suit our requirements (Dmitry N Grigoryev et al, Analytical Biochemistry, (1999) 267, 319-330). The conversion of 17-α-hydroxy pregnenolone to Dehydroepiandrosterone is accompanied by the release of acetic acid. In the Cyp17 lyase assay, 17-α-hydroxy pregnenolone labeled with tritium (3H) at position 21 is used as the substrate. Chloroform extraction removes the radioactive steroids and acetic acid is taken into aqueous layer. The tritiated acetic acid released in the assay thus extracted is quantified to determine the enzyme activity.
Initial buffer conditions were, 50 mM Phosphate buffer, pH 7.5 was used as the starting buffer for Cyp17 lyase activity based on the data published in US patent publication No. US2004/0198773 A1. […] Human Cyp 17 gene was cloned and expressed in Adenoviral expression system in A549 cell lines. The purified cell membrane preparations were used as the source for Human CYP17 enzyme. Total protein concentration: 8 mg/mL.
For routine screening, the assay was set up with 16 μg of enzyme in 50 μL reaction volume. 17α-hydroxy pregnenolone [21-3H] was added to a final concentration of 0.25 μM. NADPH is used at a final concentration of 4.2 mM. Total reaction volume was made up to 50 μL with 50 mM Phosphate buffer pH 7.5. The reaction mixture was incubated at room temperature for 90 minutes with gentle shaking. The reaction was stopped by the addition of 100 μL of buffer. 500 μL of 5% freshly prepared activated charcoal was added to the solution and mixed well by vortexing. The samples were centrifuged at 17568×g for 5 minutes. (14000 rpm). The supernatant was carefully transferred to fresh tube and 1.3 mL of scintillation fluid was added, mixed by vortexing.
The radioactivity was measured in a 1450 MicroBeta TriLux™ scintillation counter from Wallac-Perkin Elmer®, USA. The measurements were carried out in 2.0 mL Eppendorf™ tubes. Each tube was counted for 1 minute. The amount of tritiated acetic acid released is proportional to the lyase activity. Percent lyase activity in presence of inhibitor was calculated using the formula given below.
[formula] • Sample: Enzyme reaction in presence of inhibitor. • Positive control: Enzyme reaction without inhibitor but containing DMSO at 1% final concentration. • Blank—Contains all reagents except enzyme. • % Inhibition=100%−% Lyase activity
For IC50 determination, the % inhibition was plotted as a function of inhibitor concentration. The data was fitted to sigmoidal equation using Graphpad Prism® software IV to generate IC50 values.
For the molecule `Cc1ccncc1N1CCc2ccsc2C1=O` [Example 5A, 6-(4-Methyl-pyridin-3-yl)-5,6-dihydro-4H-thieno[2,3-c]pyridin-7-one], the inhibition at 10 µM is 91%.
The same measure, in the same setting: the figure for `O=C1c2sccc2CCN1c1cccnc1` [Example 6A, 6-Pyridin-3-yl-5,6-dihydro-4H-thieno[2,3-c]pyridin-7-one] is 48%; for `Cc1ccncc1N1CCc2sccc2C1=O` [Example 7A, 5-(4-Methyl-pyridin-3-yl)-6,7-dihydro-5H-thieno[3,2-a]pyridin-4-one] it is 75%; for `O=C1c2ccsc2CCN1c1cccnc1` [Example 8A, 5-Pyridin-3-yl-6,7-dihydro-5H-thieno[3,2-c]pyridin-4-one] it is 27%.
The same measure, in the same setting: as for `Cc1ccncc1N1CCc2c(Cl)cccc2C1=O` [Example 12A, 5-Chloro-2-(4-methyl-pyridin-3-yl)-3,4-dihydro-2H-isoquinolin-1-one], the figure is 64%; as for `Cc1ccncc1N1CCc2scc(-c3ccc(F)cc3)c2C1=O` [Example 15A, 3-(4-Fluoro-phenyl)-5-(4-methyl-pyridin-3-yl)-6,7-dihydro-5H-thieno[3,2-c]pyridin-4-one], 35%; as for `Cc1ccncc1N1CCc2c(cccc2C(F)(F)F)C1=O` [Example 22A, 2-(4-Methyl-pyridin-3-yl)-5-trifluoromethyl-3,4-dihydro-2H-isoquinolin-1-one], 42%.
On the same count and under the same terms, the figure for `Cc1ccncc1-n1ccc2ccc(NC(=O)C3CC3)cc2c1=O` [Example 24A, Cyclopropanecarboxylic acid [2-(4-methyl-pyridin-3-yl)-1-oxo-1,2-dihydro-isoquinolin-7-yl]-amide] is 53%; for `Cc1ccncc1N1CCc2ccc(NC(=O)C3CC3)cc2C1=O` [Example 25A, Cyclopropanecarboxylic acid [2-(4-methyl-pyridin-3-yl)-1-oxo-1,2,3,4-tetrahydro-isoquinolin-7-yl]-amide] it is 35%; for `Cc1ccncc1-n1ccc2ccc(C(F)(F)F)cc2c1=O` [Example 29A, 2-(4-Methyl-pyridin-3-yl)-7-trifluoromethyl-2H-isoquinolin-1-one] it is 66%.
Consider `Cc1ccncc1N1CCc2ccc(Nc3ccccc3)cc2C1=O` [Example 30A, 2-(4-methylpyridin-3-yl)-7-(phenylamino)-3,4-dihydroisoquinolin-1(2H)-one], for which the inhibition at 10 µM is 41%.

The experiment is the same for the next values; noted with them: human CYP17 lyase; substrate 0.25 μM; room temperature, 90 minutes; read-out: Lyase IC 50 nM Human.
For the molecule `O=C1c2cc(Cl)ccc2CCN1c1cccnc1` [Example 1A, 7-Chloro-2-pyridin-3-yl-3,4-dihydro-2H-isoquinolin-1-one], the IC50 was determined as 60 nM.
On the same count and under the same terms, the figure for `Cc1ccncc1N1CCc2ccc(Cl)cc2C1=O` [Example 2A, 7-Chloro-2-(4-methyl-pyridin-3-yl)-3,4-dihydro-2H-isoquinolin-1-one] is 37 nM; for `Cc1ccncc1N1CCc2ccc(-c3ccc(F)cc3)cc2C1=O` [Example 3A, 7-(4-Fluoro-phenyl)-2-(4-methyl-pyridin-3-yl)-3,4-dihydro-2H-isoquinolin-1-one] it is 1210 nM; for `Cc1ccncc1N1CCc2ccc(C(F)(F)F)cc2C1=O` [Example 4A, 2-(4-Methyl-pyridin-3-yl)-7-trifluoromethyl-3,4-dihydro-2H-isoquinolin-1-one] it is 5.5 nM.
Still for that read-out and setting: the figure for `Cc1ccncc1N1CCc2sc3ccccc3c2C1=O` [Example 9A, 2-(4-Methyl-pyridin-3-yl)-3,4-dihydro-2H-benzo[4,5]thieno[3,2-c]pyridin-1-one] is 1.5 nM.
The same measure, in the same setting: as for `Cc1ccncc1N1CCc2ccc3ccccc3c2C1=O` [Example 10A, 2-(4-Methyl-pyridin-3-yl)-3,4-dihydro-2H-benzo[h]isoquinolin-1-one], the figure is 3.5 nM; as for `COc1ccc2c(c1)CCN(c1cnccc1C)C2=O` [Example 11A, 6-Methoxy-2-(4-methyl-pyridin-3-yl)-3,4-dihydro-2H-isoquinolin-1-one], 214 nM; as for `Cc1ccncc1N1CCc2cc(O)ccc2C1=O` [Example 11B, 6-Hydroxy-2-(4-methyl-pyridin-3-yl)-3,4-dihydro-2H-isoquinolin-1-one], 139 nM.
Turning to `COc1cccc2c1CCN(c1cnccc1C)C2=O` [Example 13A, 5-Methoxy-2-(4-methyl-pyridin-3-yl)-3,4-dihydro-2H-isoquinolin-1-one], the IC50 was 917 nM.
On the same count and under the same terms, as for `Cc1ccncc1N1CCc2sc(-c3ccc(F)cc3)cc2C1=O` [Example 14A, 2-(4-Fluoro-phenyl)-5-(4-methyl-pyridin-3-yl)-6,7-dihydro-5H-thieno[3,2-c]pyridin-4-one], the figure is 755 nM; as for `O=C1c2cc(C(F)(F)F)ccc2CCN1c1cccnc1` [Example 16A, 2-Pyridin-3-yl-7-trifluoromethyl-3,4-dihydro-2H-isoquinolin-1-one], 175 nM.
Still for that read-out and setting: as for `Cc1ccncc1N1CCc2cc(C(F)(F)F)ccc2C1=O` [Example 17A, 2-(4-Methyl-pyridin-3-yl)-6-trifluoromethyl-3,4-dihydro-2H-Isoquinolin-1-one], the figure is 95 nM; as for `O=C1c2cc(C(F)(F)F)ccc2CCN1c1cncc(F)c1` [Example 18A, 2-(5-Fluoro-pyridin-3-yl)-7-trifluoromethyl-3,4-dihydro-2H-isoquinolin-1-one], 334 nM.
Same read-out and setting: as for `O=C1c2cc(C(F)(F)F)ccc2CCN1c1cncc2ccccc12` [Example 19A, 7-Trifluoromethyl-3,4-dihydro-[2,4′]biisoquinolinyl-1-one], the figure is 44 nM.
On to `Cc1ccncc1N1CC(C)(C)c2ccc(C(F)(F)F)cc2C1=O` [Example 20A, 4,4-Dimethyl-2-(4-methyl-pyridin-3-yl)-7-trifluoromethyl-3,4-dihydro-2H-isoquinolin-1-one], for which the IC50 was found to be 369 nM.
For `O=C1c2cc(C(F)(F)F)ccc2CCN1c1cnccc1C(F)(F)F` [Example 21A, 7-Trifluoromethyl-2-(4-trifluoromethyl-pyridin-3-yl)-3,4-dihydro-2H-isoquinolin-1-one], the IC50 came out at 56 nM.
For `Cc1ccncc1N1CCc2ccccc2C1=O` [Example 23A, 2-(4-Methyl-pyridin-3-yl)-3,4-dihydro-2H-isoquinolin-1-one], the IC50 was 227 nM.
Take `COc1ccc2c(c1)C(=O)N(c1cnccc1C)CC2` [Example 26A, 7-Methoxy-2-(4-methyl-pyridin-3-yl)-3,4-dihydro-2H-isoquinolin-1-one]: the IC50 is 17 nM.
On the same count and under the same terms, the figure for `Cc1ccncc1N1CCc2ccc(O)cc2C1=O` [Example 27A, 7-Hydroxy-2-(4-methyl-pyridin-3-yl)-3,4-dihydro-2H-isoquinolin-1-one] is 83 nM; for `CCn1ccc2c1C(=O)N(c1cnccc1C)CC2` [Example 28A, 1-Ethyl-6-(4-methyl-pyridin-3-yl)-1,4,5,6-tetrahydro-pyrrolo[2,3-c]pyridin-7-one] it is 70 nM.

Source of the values: US8946260B2, “17α-hydroxylase/C17,20-lyase inhibitors” (Novartis AG, priority 2010, dated 2015).
